Experimental data taken from ChEMBL document CHEMBL1687697 (ACS Med Chem Lett, 2010).
The source made the active and inactive calls. No cut-off for these calls is given here.

How the values were obtained:
DU-145 [1] = test: Cell cycle arrest in human DU145 cells assessed as accumulation in S phase at 0.5 uM after 24 hrs by FACS flow cytometry; format: functional
DU-145 [2] = test: Cell cycle arrest in human DU145 cells assessed as accumulation in G2/M phase at 0.5 uM after 24 hrs by FACS flow cytometry; format: functional
DU-145 [3] = test: Cell cycle arrest in human DU145 cells assessed as accumulation in G0/G1 phase at 1 uM after 24 hrs by FACS flow cytometry; format: functional
DU-145 [4] = test: Cell cycle arrest in human DU145 cells assessed as accumulation in S phase at 1 uM after 24 hrs by FACS flow cytometry; format: functional
DU-145 [5] = test: Cell cycle arrest in human DU145 cells assessed as accumulation in G2/M phase at 1 uM after 24 hrs by FACS flow cytometry; format: functional
DU-145 [6] = test: Induction of apoptosis in human DU145 cells assessed as viable cells at 1 uM after 72 hrs by AnnexinV-propidium iodide based FACS flow cytometry; format: functional; conditions: DU-145, 72 h, read-out: Activity
DU-145 [7] = test: Induction of apoptosis in human DU145 cells assessed as early apoptotic cells at 1 uM after 72 hrs by AnnexinV-propidium iodide based FACS flow cytometry; format: functional
DU-145 [8] = test: Induction of apoptosis in human DU145 cells assessed as late apoptotic cells at 1 uM after 72 hrs by AnnexinV-propidium iodide based FACS flow cytometry; format: functional
DU-145 [9] = test: Induction of apoptosis in human DU145 cells assessed as necrotic cells at 1 uM after 72 hrs by AnnexinV-propidium iodide based FACS flow cytometry; format: functional
DU-145 [10] = test: Induction of apoptosis in human DU145 cells assessed as viable cells at 5 uM after 72 hrs by AnnexinV-propidium iodide based FACS flow cytometry; format: functional; conditions: DU-145, 72 h, read-out: Activity
DU-145 [11] = test: Induction of apoptosis in human DU145 cells assessed as early apoptotic cells at 5 uM after 72 hrs by AnnexinV-propidium iodide based FACS flow cytometry; format: functional
DU-145 [12] = test: Induction of apoptosis in human DU145 cells assessed as late apoptotic cells at 5 uM after 72 hrs by AnnexinV-propidium iodide based FACS flow cytometry; format: functional
DU-145 [13] = test: Induction of apoptosis in human DU145 cells assessed as necrotic cells at 5 uM after 72 hrs by AnnexinV-propidium iodide based FACS flow cytometry; format: functional
DU-145 [14] = test: Induction of apoptosis in human DU145 cells assessed as viable cells at 10 uM after 72 hrs by AnnexinV-propidium iodide based FACS flow cytometry; format: functional; conditions: DU-145, 72 h, read-out: Activity
DU-145 [15] = test: Induction of apoptosis in human DU145 cells assessed as early apoptotic cells at 10 uM after 72 hrs by AnnexinV-propidium iodide based FACS flow cytometry; format: functional
DU-145 [16] = test: Induction of apoptosis in human DU145 cells assessed as late apoptotic cells at 10 uM after 72 hrs by AnnexinV-propidium iodide based FACS flow cytometry; format: functional
DU-145 [17] = test: Induction of apoptosis in human DU145 cells assessed as necrotic cells at 10 uM after 72 hrs by AnnexinV-propidium iodide based FACS flow cytometry; format: functional
[18] = biological target: Tyrosine-protein kinase ABL1 (Homo sapiens, UniProt P00519); test: Inhibition of Abl1 after 60 mins by radiometric assay
Tyrosine-protein kinase ABL1, sequence (P00519 whole entry): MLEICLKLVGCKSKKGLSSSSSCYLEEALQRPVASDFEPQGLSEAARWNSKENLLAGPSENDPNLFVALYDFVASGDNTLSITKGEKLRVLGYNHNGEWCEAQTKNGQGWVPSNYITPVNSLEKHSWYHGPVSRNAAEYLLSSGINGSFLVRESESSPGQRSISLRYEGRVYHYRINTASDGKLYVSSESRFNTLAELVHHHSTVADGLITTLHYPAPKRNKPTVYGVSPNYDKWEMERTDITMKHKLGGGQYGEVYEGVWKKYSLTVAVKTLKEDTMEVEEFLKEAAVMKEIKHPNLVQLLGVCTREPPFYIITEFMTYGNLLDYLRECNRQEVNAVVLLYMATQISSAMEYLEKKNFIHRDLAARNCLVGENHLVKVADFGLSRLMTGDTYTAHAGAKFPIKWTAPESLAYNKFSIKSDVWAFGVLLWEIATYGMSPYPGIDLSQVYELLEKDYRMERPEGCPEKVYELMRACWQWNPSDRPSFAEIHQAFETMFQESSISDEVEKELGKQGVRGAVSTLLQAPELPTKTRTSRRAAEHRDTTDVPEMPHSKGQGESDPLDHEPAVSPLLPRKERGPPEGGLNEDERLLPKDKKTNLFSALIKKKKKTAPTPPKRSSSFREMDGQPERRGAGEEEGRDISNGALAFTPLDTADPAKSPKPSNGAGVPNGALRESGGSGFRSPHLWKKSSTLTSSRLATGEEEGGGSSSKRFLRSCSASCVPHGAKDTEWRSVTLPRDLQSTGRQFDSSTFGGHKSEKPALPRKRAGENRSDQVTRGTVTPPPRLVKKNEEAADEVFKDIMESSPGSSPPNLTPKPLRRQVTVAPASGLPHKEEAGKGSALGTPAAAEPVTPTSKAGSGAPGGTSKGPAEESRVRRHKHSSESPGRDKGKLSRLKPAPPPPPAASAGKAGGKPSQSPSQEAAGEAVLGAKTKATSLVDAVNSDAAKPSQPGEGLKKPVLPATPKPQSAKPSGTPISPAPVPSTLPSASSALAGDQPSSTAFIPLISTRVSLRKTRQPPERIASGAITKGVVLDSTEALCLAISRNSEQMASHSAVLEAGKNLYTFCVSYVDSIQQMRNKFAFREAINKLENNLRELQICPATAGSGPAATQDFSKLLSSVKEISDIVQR

[19] = biological target: RAC-alpha serine/threonine-protein kinase (Homo sapiens, UniProt P31749); test: Inhibition of Akt1 after 60 mins by radiometric assay
RAC-alpha serine/threonine-protein kinase, sequence (P31749 whole entry): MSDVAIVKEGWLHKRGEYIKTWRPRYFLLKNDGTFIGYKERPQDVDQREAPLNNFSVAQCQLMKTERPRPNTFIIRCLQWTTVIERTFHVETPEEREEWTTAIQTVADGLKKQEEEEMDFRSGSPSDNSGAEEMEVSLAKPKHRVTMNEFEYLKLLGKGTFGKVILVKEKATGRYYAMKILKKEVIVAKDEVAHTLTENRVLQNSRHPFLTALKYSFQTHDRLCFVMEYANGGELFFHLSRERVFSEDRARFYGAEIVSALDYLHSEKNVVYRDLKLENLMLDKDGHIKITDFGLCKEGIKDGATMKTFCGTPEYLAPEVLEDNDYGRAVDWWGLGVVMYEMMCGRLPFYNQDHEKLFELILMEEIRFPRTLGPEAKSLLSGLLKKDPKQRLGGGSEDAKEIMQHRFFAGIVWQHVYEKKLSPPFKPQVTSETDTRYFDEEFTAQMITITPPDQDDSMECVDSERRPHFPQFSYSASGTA

Aurora kinase A = Aurora kinase A (Homo sapiens, UniProt O14965); test: Inhibition of Aurora-A after 60 mins by radiometric assay
[20] = biological target: Serine/threonine-protein kinase B-raf (Homo sapiens, UniProt P15056); test: Inhibition of B-Raf after 60 mins by radiometric assay
Serine/threonine-protein kinase B-raf (Homo sapiens, UniProt P15056), sequence (P15056 whole entry): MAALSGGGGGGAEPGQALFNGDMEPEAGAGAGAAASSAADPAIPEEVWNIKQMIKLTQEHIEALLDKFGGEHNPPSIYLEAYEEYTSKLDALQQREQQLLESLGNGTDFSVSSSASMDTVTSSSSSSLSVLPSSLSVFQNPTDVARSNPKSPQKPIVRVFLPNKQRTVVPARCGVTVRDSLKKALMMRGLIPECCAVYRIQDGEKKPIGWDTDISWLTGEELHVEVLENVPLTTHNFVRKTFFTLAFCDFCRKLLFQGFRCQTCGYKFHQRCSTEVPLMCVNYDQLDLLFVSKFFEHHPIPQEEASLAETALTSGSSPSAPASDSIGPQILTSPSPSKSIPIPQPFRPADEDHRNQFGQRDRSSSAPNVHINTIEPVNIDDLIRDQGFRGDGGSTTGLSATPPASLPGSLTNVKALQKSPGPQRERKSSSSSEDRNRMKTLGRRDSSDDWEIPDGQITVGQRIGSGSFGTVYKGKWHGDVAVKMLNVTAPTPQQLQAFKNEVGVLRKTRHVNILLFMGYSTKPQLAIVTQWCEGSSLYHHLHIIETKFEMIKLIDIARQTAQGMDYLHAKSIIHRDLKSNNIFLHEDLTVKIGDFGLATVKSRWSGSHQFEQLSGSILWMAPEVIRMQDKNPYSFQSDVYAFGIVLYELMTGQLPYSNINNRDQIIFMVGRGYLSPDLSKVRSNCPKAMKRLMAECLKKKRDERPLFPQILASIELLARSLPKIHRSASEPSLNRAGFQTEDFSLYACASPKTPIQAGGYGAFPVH

[21] = biological target: Serine/threonine-protein kinase B-raf (Homo sapiens, UniProt P15056, V600E); test: Inhibition of B-Raf V600E mutant after 60 mins by radiometric assay
[22] = biological target: Mitogen-activated protein kinase 1 (Homo sapiens, UniProt P28482); test: Inhibition of Erk2 after 60 mins by radiometric assay
Mitogen-activated protein kinase 1, sequence (P28482 whole entry): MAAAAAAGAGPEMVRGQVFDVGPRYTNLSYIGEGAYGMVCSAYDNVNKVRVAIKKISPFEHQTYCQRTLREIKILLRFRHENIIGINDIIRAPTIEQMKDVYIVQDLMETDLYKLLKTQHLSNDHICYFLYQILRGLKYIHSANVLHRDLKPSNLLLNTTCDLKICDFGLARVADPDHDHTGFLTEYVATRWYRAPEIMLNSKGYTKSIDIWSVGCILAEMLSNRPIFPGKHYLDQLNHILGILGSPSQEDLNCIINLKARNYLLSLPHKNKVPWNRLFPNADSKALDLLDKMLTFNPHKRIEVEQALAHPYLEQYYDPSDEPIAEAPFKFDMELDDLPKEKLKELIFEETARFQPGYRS

[23] = biological target: Fibroblast growth factor receptor 1 (Homo sapiens, UniProt P11362); test: Inhibition of FGFR-1 after 60 mins by radiometric assay
[24] = biological target: Glycogen synthase kinase-3 beta (Homo sapiens, UniProt P49841); test: Inhibition of GSK3-beta after 60 mins by radiometric assay
[25] = biological target: Receptor-type tyrosine-protein kinase FLT3 (Homo sapiens, UniProt P36888); test: Inhibition of Flt3 after 60 mins by radiometric assay
[26] = biological target: Mitogen-activated protein kinase 8 (Homo sapiens, UniProt P45983); test: Inhibition of JNK1 after 60 mins by radiometric assay
[27] = biological target: Mast/stem cell growth factor receptor Kit (Homo sapiens, UniProt P10721); test: Inhibition of KIT after 60 mins by radiometric assay
Mast/stem cell growth factor receptor Kit, sequence (P10721 whole entry): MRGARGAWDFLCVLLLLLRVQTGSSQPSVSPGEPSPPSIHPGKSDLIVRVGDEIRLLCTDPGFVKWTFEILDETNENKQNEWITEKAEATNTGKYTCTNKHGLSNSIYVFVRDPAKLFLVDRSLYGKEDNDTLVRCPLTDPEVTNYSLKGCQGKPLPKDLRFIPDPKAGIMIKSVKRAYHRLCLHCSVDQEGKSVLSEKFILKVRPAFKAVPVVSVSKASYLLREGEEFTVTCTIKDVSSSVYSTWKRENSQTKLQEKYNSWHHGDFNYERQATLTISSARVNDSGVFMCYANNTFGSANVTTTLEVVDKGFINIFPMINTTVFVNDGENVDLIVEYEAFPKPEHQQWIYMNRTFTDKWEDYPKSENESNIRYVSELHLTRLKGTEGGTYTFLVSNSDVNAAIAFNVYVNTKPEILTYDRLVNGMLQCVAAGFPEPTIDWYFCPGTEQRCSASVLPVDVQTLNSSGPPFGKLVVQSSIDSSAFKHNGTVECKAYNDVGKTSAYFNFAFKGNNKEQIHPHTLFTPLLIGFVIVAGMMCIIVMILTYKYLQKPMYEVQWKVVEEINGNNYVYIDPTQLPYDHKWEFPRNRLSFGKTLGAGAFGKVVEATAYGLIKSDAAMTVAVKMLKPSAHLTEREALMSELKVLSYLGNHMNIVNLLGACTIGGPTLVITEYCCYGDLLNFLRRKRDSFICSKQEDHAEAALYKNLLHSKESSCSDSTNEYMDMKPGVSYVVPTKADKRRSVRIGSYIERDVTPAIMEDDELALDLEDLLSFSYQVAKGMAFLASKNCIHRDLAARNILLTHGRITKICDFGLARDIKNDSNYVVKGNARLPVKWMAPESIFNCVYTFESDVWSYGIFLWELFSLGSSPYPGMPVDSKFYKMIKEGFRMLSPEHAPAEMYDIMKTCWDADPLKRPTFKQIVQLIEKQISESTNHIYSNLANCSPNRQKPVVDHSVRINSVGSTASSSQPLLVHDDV

[28] = biological target: Tyrosine-protein kinase Lyn (Homo sapiens, UniProt P07948); test: Inhibition of LYN after 60 mins by radiometric assay
[29] = Inhibition of MEK after 60 mins by radiometric assay
[30] = biological target: 3-phosphoinositide-dependent protein kinase 1 (Homo sapiens, UniProt O15530); test: Inhibition of PDK1 after 60 mins by radiometric assay
3-phosphoinositide-dependent protein kinase 1, sequence (O15530 whole entry): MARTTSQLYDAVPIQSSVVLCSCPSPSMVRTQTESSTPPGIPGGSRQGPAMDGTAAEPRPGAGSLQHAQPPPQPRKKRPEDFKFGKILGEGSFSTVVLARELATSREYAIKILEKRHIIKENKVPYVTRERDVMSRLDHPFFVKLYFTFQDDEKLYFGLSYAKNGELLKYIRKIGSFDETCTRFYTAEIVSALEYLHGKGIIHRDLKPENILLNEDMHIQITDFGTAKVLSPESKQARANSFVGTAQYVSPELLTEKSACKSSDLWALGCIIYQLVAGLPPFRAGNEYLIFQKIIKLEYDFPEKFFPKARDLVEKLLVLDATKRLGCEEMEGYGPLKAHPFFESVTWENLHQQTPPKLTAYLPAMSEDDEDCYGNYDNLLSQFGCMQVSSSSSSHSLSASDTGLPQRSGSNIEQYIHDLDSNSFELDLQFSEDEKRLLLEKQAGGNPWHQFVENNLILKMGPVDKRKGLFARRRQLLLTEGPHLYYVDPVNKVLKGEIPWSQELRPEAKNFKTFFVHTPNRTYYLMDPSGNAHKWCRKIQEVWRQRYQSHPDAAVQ

Angiopoietin-1 receptor = Angiopoietin-1 receptor (Homo sapiens, UniProt Q02763); test: Inhibition of TIE2 after 60 mins by radiometric assay
[31] = biological target: Protein kinase C alpha type (Homo sapiens, UniProt P17252); test: Inhibition of PKC-alpha after 60 mins by radiometric assay
[32] = Inhibition of Raf Y340D/Y341D mutant after 60 mins by radiometric assay
[33] = biological target: Vascular endothelial growth factor receptor 2 (Homo sapiens, UniProt P35968); test: Inhibition of VEGFR2 after 60 mins by radiometric assay
DU-145 [34] = test: Decrease in STAT3 protein level in human DU145 cells after 24 hrs by Western blot analysis; format: functional, cell-based
[35] = biological target: Signal transducer and activator of transcription 3 (Homo sapiens) (UniProt P40763); test: Inhibition of STAT3 phosphorylation at Tyr705 in human DU145 cells at 2 uM within 2 hrs by Western blot analysis; format: cell-based; conditions: DU-145
Signal transducer and activator of transcription 3 (Homo sapiens), sequence (P40763 whole entry): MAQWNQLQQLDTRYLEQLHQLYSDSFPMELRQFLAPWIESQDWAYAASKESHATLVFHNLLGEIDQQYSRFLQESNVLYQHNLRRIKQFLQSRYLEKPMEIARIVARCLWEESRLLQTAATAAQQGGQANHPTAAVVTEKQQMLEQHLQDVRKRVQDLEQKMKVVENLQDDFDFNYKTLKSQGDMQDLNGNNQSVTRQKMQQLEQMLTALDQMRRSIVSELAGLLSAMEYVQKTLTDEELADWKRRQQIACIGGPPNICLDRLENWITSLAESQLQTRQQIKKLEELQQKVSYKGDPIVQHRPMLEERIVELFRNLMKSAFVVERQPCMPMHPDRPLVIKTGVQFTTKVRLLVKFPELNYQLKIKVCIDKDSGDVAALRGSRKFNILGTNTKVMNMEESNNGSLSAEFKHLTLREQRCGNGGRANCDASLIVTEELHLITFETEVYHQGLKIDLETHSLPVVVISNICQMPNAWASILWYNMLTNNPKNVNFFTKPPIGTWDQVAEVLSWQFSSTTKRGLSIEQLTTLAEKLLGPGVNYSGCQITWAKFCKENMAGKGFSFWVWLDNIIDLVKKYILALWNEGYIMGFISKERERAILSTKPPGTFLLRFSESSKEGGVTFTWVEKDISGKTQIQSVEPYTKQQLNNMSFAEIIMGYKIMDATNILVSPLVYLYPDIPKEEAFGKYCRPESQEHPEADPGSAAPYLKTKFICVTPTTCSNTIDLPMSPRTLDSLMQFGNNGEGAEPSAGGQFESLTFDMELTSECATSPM

With O=C(Nc1ccc([N+](=O)[O-])cc1Cl)c1cc(Cl)ccc1O [NICLOSAMIDE] as the molecule, how does the Activity (DU-145 [1]) read?
The Activity was 32.84%.

And the Activity (DU-145 [2])?
The Activity was 9.76%.

And the Activity (DU-145 [3])?
Its Activity is 75.35%.

What about the Activity (DU-145 [4]) of the same molecule?
The Activity was 16.82%.

And the Activity (DU-145 [5])?
Its Activity is 7.83%.

And the viability at 1 µM (DU-145 [6])?
Its viability at 1 µM is 83.9%.

What about the Activity (DU-145 [7]) of the same molecule?
Its Activity is 4.84%.

And the Activity (DU-145 [8])?
Its Activity is 8.16%.

What about the Activity (DU-145 [9]) of the same molecule?
Its Activity is 2.63%.

What about the viability at 5 µM (DU-145 [10]) of the same molecule?
The viability at 5 µM was 61.9%.

And the Activity (DU-145 [11])?
The Activity was 10.44%.

What about the Activity (DU-145 [12]) of the same molecule?
Its Activity is 25.41%.

What about the Activity (DU-145 [13]) of the same molecule?
Its Activity is 2.27%.

And the viability at 10 µM (DU-145 [14])?
The viability at 10 µM was 43.4%.

What about the Activity (DU-145 [15]) of the same molecule?
Its Activity is 15.42%.

What about the Activity (DU-145 [16]) of the same molecule?
The Activity was 38.72%.

What about the Activity (DU-145 [17]) of the same molecule?
Its Activity is 2.43%.

And the IC50 [18]?
The IC50 was > 100 µM.

And the IC50 [19]?
Its IC50 is 59.4 µM.

And the IC50 (Aurora kinase A)?
Its IC50 is 54.1 µM.

What about the IC50 [20] of the same molecule?
Its IC50 is > 100 µM.

What about the IC50 [21] of the same molecule?
The IC50 was > 100 µM.

And the IC50 [22]?
Its IC50 is > 100 µM.

And the IC50 [23]?
The IC50 was 13.1 µM.

And the IC50 [24]?
The IC50 was 77.5 µM.

What about the IC50 [25] of the same molecule?
Its IC50 is > 100 µM.

And the IC50 [26]?
Its IC50 is > 100 µM.

And the IC50 [27]?
The IC50 was 27.8 µM.

And the IC50 [28]?
The IC50 was 23.8 µM.

What about the IC50 [29] of the same molecule?
The IC50 was > 100 µM.

And the IC50 [30]?
The IC50 was 83.9 µM.

And the IC50 (Angiopoietin-1 receptor)?
Its IC50 is 67.8 µM.

And the IC50 [31]?
Its IC50 is > 100 µM.

And the IC50 [32]?
Its IC50 is > 100 µM.

And the IC50 [33]?
The IC50 was 23.1 µM.

And the Activity (DU-145 [34])?
The Activity was “inactive”.

And the inhibition [35]?
Its inhibition is “Active”.
